Laboratory results taken from patent US20220213063A1, “N-[l-(5-BROMO-2-PYRIMIDIN-2-YL-1,2,4-TRIAZOL-3-YL)ETHYL]-2-CYCLOPROPYL-6-(TRIFLUOROMETHYL)PYRIDINE-4-CARBOXAMIDE DERIVATIVES AND RELATED COMPOUNDS AS INSECTICIDES” (SYNGENTA CROP PROTECTION AG, priority 2019, published 2022).

Legend:
Assay type in all cases: in vivo
[1] = tested on: Myzus persicae (Green Peach Aphid); assay: Example B8: Myzus persicae (green peach aphid), intrinsic activity; conditions: 120 h, test rate of 12 ppm, mixed with sucrose solution, 5 days after infestation
Source text: Example B8: Myzus persicae (Green Peach Aphid): Intrinsic Activity
Test compounds prepared from 10'000 ppm DMSO stock solutions were applied by pipette into 24-well microtiter plates and mixed with sucrose solution. The plates were closed with a stretched Parafilm. A plastic stencil with 24 holes was placed onto the plate and infested pea seedlings were placed directly on the Parafilm. The infested plate was closed with a gel blotting paper and another plastic stencil and then turned upside down. The samples were assessed for mortality 5 days after infestation.

[2] = tested on: Diabrotica Balteata (Corn Root Worm); assay: Example B1: Diabrotica balteata (corn root worm), sprayed maize sprouts; conditions: 96 h, application rate of 200 ppm, L2 larvae, 4 days after infestation, in comparison to untreated samples, read-out: control in at least one of the two categories (mortality or growth inhibition)
Method: Example B1: Diabrotica Balteata (Corn Root Worm)
Maize sprouts placed onto an agar layer in 24-well microtiter plates were treated with aqueous test solutions prepared from 10'000 ppm DMSO stock solutions by spraying. After drying, the plates were infested with L2 larvae (6 to 10 per well). The samples were assessed for mortality and growth inhibition in comparison to untreated samples 4 days after infestation.
The following compounds gave an effect of at least 80% control in at least one of the two categories (mortality or growth inhibition) at an application rate of 200 ppm: […]

[3] = tested on: Spodoptera littoralis (Egyptian Cotton Leaf Worm); assay: Example B9: Spodoptera littoralis (Egyptian cotton leaf worm), sprayed cotton leaf discs; conditions: foliar, 72 h, application rate of 200 ppm, L1 larvae, 3 days after infestation, in comparison to untreated samples, read-out: control in at least one of the three categories (mortality, anti-feedant effect, or growth inhibition)
Method: Example B9: Spodoptera littoralis (Egyptian Cotton Leaf Worm)
Cotton leaf discs were placed onto agar in 24-well microtiter plates and sprayed with aqueous test solutions prepared from 10'000 ppm DMSO stock solutions. After drying the leaf discs were infested with five L1 larvae. The samples were assessed for mortality, anti-feeding effect, and growth inhibition in comparison to untreated samples 3 days after infestation. Control of Spodoptera littoralis by a test sample is given when at least one of the categories mortality, anti-feedant effect, and growth inhibition is higher than the untreated sample.

[4] = tested on: Frankliniella occidentalis (Western Flower Thrips); assay: Example B3: Frankliniella occidentalis (western flower thrips), feeding/contact activity; conditions: 168 h, application rate of 200 ppm, population of mixed ages, 7 days after infestation
Method: Example B3: Frankliniella occidentalis (Western Flower Thrips):Feeding/Contact Activity
Sunflower leaf discs were placed on agar in 24-well microtiter plates and sprayed with aqueous test solutions prepared from 10'000 DMSO stock solutions. After drying the leaf discs were infested with a Frankliniella population of mixed ages. The samples were assessed for mortality 7 days after infestation.

[5] = tested on: Chilo suppressalis (Striped Rice Stemborer); assay: Example B4: Chilo suppressalis (striped rice stemborer), artificial diet; conditions: 144 h, application rate of 200 ppm, L2 larvae, 6 days after infestation, in comparison to untreated samples, read-out: control in at least one of the three categories (mortality, anti-feedant or growth inhibition)
Method: Example B4: Chilo suppressalis (Striped Rice Stemborer)
24-well microtiter plates with artificial diet were treated with aqueous test solutions prepared from 10'000 ppm DMSO stock solutions by pipetting. After drying, the plates were infested with L2 larvae (6-8 per well). The samples were assessed for mortality, anti-feeding effect, and growth inhibition in comparison to untreated samples 6 days after infestation. Control of Chilo suppressalis by a test sample is given when at least one of the categories mortality, anti-feedant effect, and growth inhibition is higher than the untreated sample.

[6] = tested on: Plutella xylostella (Diamond Back Moth); assay: Example B5: Plutella xylostella (diamond back moth), artificial diet; conditions: 192 h, application rate of 200 ppm, eggs, 8 days after infestation, in comparison to untreated samples, read-out: effect in at least one of the two categories (mortality or growth inhibition)
Method: Example B5: Plutella xylostella (Diamond Back Moth)
24-well microtiter plates with artificial diet were treated with aqueous test solutions prepared from 10'000 ppm DMSO stock solutions by pipetting. After drying, Plutella eggs were pipetted through a plastic stencil onto a gel blotting paper and the plate was closed with it. The samples were assessed for mortality and growth inhibition in comparison to untreated samples 8 days after infestation.
The following compounds gave an effect of at least 80% in at least one of the two categories (mortality or growth inhibition) at an application rate of 200 ppm: […]

CC(NC(=O)c1cc(C(F)(F)F)nc(C2(C#N)CC2)c1)c1nc(Br)nn1-c1ncccn1 (stereo not shown) [Compound P3, N-[1-(5-bromo-2-pyrimidin-2-yl-1,2,4-triazol-3-yl)ethyl]-2-(1-cyanocyclopropyl)-6-(trifluoromethyl)pyridine-4-carboxamide]
≥ 80%: mortality at 12 ppm [1] | percent control (mortality or growth inhibition) at 200 ppm [2] | percent control (mortality, anti-feedant effect or growth inhibition) at 200 ppm [3] | mortality at 200 ppm [4] | percent control (mortality, anti-feedant effect or growth inhibition) at 200 ppm [5] | percent effect (mortality or growth inhibition) at 200 ppm [6]

CC(NC(=O)c1cc(C2CC2)cc(C(F)(F)F)c1)c1nc(Br)nn1-c1ccc(F)cn1 (stereo not shown) [Compound P8, N-[1-[5-bromo-2-(5-fluoro-2-pyridyl)-1,2,4-triazol-3-yl]ethyl]-3-cyclopropyl-5-(trifluoromethyl)benzamide]
≥ 80%: percent control (mortality, anti-feedant effect or growth inhibition) at 200 ppm [5] | percent effect (mortality or growth inhibition) at 200 ppm [6]

CC(NC(=O)c1cc(C2CC2)nc(C(F)(F)F)c1)c1nc(Br)nn1-c1ncccn1 (stereo not shown) [Compound P5, N-[1-(5-bromo-2-pyrimidin-2-yl-1,2,4-triazol-3-yl)ethyl]-2-cyclopropyl-6-(trifluoromethyl)pyridine-4-carboxamide]
≥ 80%: percent control (mortality or growth inhibition) at 200 ppm [2] | percent control (mortality, anti-feedant effect or growth inhibition) at 200 ppm [3] | percent control (mortality, anti-feedant effect or growth inhibition) at 200 ppm [5] | percent effect (mortality or growth inhibition) at 200 ppm [6]

CC(NC(=O)c1cc(C(F)(F)F)cc(C(F)(F)C2CC2)c1)c1nc(Br)nn1-c1ncccn1 (stereo not shown) [Compound P4, N-[1-(5-bromo-2-pyrimidin-2-yl-1,2,4-triazol-3-yl)ethyl]-3-[cyclopropyl(difluoro)methyl]-5-(trifluoromethyl)benzamide]
≥ 80%: percent control (mortality or growth inhibition) at 200 ppm [2] | percent control (mortality, anti-feedant effect or growth inhibition) at 200 ppm [3] | percent control (mortality, anti-feedant effect or growth inhibition) at 200 ppm [5] | percent effect (mortality or growth inhibition) at 200 ppm [6]

CC(NC(=O)c1cc(C2CC2C(F)(F)F)cc(C(F)(F)F)c1)c1nc(Br)nn1-c1ncccn1 (stereo not shown) [Compound P7, N-[1-(5-bromo-2-pyrimidin-2-yl-1,2,4-triazol-3-yl)ethyl]-3-(trifluoromethyl)-5-[2-(trifluoromethyl)cyclopropyl]benzamide]
≥ 80%: percent control (mortality or growth inhibition) at 200 ppm [2] | percent control (mortality, anti-feedant effect or growth inhibition) at 200 ppm [3] | percent control (mortality, anti-feedant effect or growth inhibition) at 200 ppm [5] | percent effect (mortality or growth inhibition) at 200 ppm [6]

CC(NC(=O)c1cc(C2CC2)cc(C(F)(F)F)c1)c1nc(Br)nn1-c1ncccn1 (stereo not shown) [Compound P6, N-[1-(5-bromo-2-pyrimidin-2-yl-1,2,4-triazol-3-yl)ethyl]-3-cyclopropyl-5-(trifluoromethyl)benzamide]
≥ 80%: percent control (mortality or growth inhibition) at 200 ppm [2] | percent control (mortality, anti-feedant effect or growth inhibition) at 200 ppm [3] | percent control (mortality, anti-feedant effect or growth inhibition) at 200 ppm [5] | percent effect (mortality or growth inhibition) at 200 ppm [6]

CC(NC(=O)c1cc(C(F)(F)F)nc(C2(C#N)CC2)c1)c1nc(Br)nn1-c1ccc(F)cn1 (stereo not shown) [Compound P1, N-[1-[5-bromo-2-(5-fluoro-2-pyridyl)-1,2,4-triazol-3-yl]ethyl]-2-(1-cyanocyclopropyl)-6-(trifluoromethyl)pyridine-4-carboxamide]
≥ 80%: percent control (mortality or growth inhibition) at 200 ppm [2] | percent control (mortality, anti-feedant effect or growth inhibition) at 200 ppm [3] | percent control (mortality, anti-feedant effect or growth inhibition) at 200 ppm [5] | percent effect (mortality or growth inhibition) at 200 ppm [6]
